# Earlier results in patent publication US8227599B2, “Adsorbents comprising anthraquinone dye-ligends for the separation of biological materials” (BASF SE, priority 2005, dated 2012).
# Tested on: Aspergillus terreus NADP-glutamate Dehydrogenase
structure (smiles),measurement,value
Nc1c(S(=O)(=O)[O-])cc(Nc2ccc(Nc3nc(Cl)nc(Nc4ccccc4S(=O)(=O)[O-])n3)c(S(=O)(=O)[O-])c2)c2c1C(=O)c1ccccc1C2=O.[Na+].[Na+].[Na+] [Cibacron Blue 3GA],Binding of NADP-GDH to the dye,does not bind
